These results are taken from patent publication US8575116B1, “Polyacetylenic compounds for protecting against pancreatic islet atrophy” (Academia Sinica, priority 2010, dated 2013).

Data set [1] relates to HIT-T15 cells. In words: Insulin secretion of β-cell line with PMA, GF109203X and cytopiloyne (ELISA). Format: cell-based, rat. Conditions: FIG. 6A. On the technique in general: An ELISA detects its analyte on a solid surface through an enzyme-linked reagent.
Data set [2] concerns human insulin promoter in HIT-T15 β-cells. In words: Insulin promoter (phINS-Luc) dual luciferase assay in HIT-T15 β-cells. Format: cell-based, rat. Conditions: FIG. 6C. On the procedure:
FIGS. 4A-C show an increase in insulin mRNA and protein content by cytopiloyne in pancreatic islet cells. (A) HIT-T15 β-cells transfected with phINS-Luc and pRL-TK plasmids were incubated with vehicle (NS), glimepiride (GLM, 10 μM), high glucose (HG, 16.7 mM) or cytopiloyne at 7, 14 or 28 μM. Ten μg of cell lysates from these cells underwent to dual luciferase assays. […] (C) Rat pancreatic islet cells were treated with vehicle, glucose (3.3 mM (LG) or 16.7 mM (HG)) or cytopiloyne (CP, 7, 14 and 28 μM) in the presence of brefeldin A for 24 h. After anti-insulin antibody staining, these cells underwent FACS analysis. The percentage of insulin-positive β-cells is shown. All the results from 3 independent experiments are expressed as mean±SEM, and P<0.05 was considered to be statistically significant (*).
(A) RIN-M5F cells were grown in medium with 16.7 mM (HG) or 3.3 mM glucose (LG) in the presence of PMA. GF and cytopiloyne. The insulin level of the supernatants was determined using an ELISA kit. (B) RIN-M5F cells were transfected with 5 μg of dominant-negative PKCα or control plasmid grown in medium with 16.7 mM (HG) or 3.3 mM glucose (LG) in the presence of PMA (1 μM), GF109203X (3 μM) or cytopiloyne. The insulin level of the supernatants was determined using an ELISA kit. (C) HIT-T15 cells were transfected with phINS-Luc and pRL-TK plasmids. The cells were grown in medium with 16.7 mM (HG) or 3.3 mM glucose (LG) in the absence or presence of PMA, GF109203X and cytopiloyne. The cell lysates were subjected to dual luciferase assays. (D) HIT-T15 cells were transfected with vehicle or dominant-negative PKCα plasmid together with phINS-Luc and pRL-TK plasmids. The cells were grown in medium with 16.7 mM (HG) or 3.3 mM glucose (LG) in the absence or presence of PMA and cytopiloyne. The cell lysates were subjected to dual luciferase assays.
Plasmids phINS-Luc and pRL-TK contain a human insulin promoter (2347 bp) from phINS-DCR3 vector linked to a firefly luciferase gene and the thymidine kinase promoter linked to Renilla luciferase reporter gene, respectively. Dominant-negative PKCα, phINS-Luc and/or pRL-TK were transfected into HIT-T15 cells with lipofectamine or electroporation.

For data set [3], the system named is RIN-m5F cells. The data set can be described thus: DAG and cholesterol generation (3H-myristic acid, TLC) in RIN-m5F cells. It is filed as cell-based, rat. To be noted: versus vehicle control, glucose 16.7 mM. The method, then: (§1) FIGS. 5A-D show the effects of cytopiloyne on calcium mobilization, DAG generation and PKCa activation. (A) After Fura 2-AM loading, RIN-m5F cells were stimulated with 16.7 mM glucose (HG) and cytopiloyne at 7, 14 and 28 μM. Level of intracellular calcium, as shown by the 340/380 nm ratio, was detected using a fluorescence spectrophotometer. (B) RIN-m5F cells were pulsed with ^3H-myristic acid (5 Cim1^−1) for 16 hours. After washing, the cells were stimulated with glucose, cytopiloyne, PMA and glimepiride. Total lipids were separated on a silica thin layer plate. DAG and cholesterol were visualized with iodine vapor and identified by their standards. (C) RIN-m5F cells were incubated with vehicle (Mock), cytopiloyne (CP, 3, 7 and 14 μM), PMA (1 μM) and 16.7 mM (HG). Membrane or cytosolic proteins were subjected to Western blot with anti-PKCα and anti-Actin antibodies. (D) RIN-m5F cells were incubated with vehicle (Mock), cytopiloyne (CP 7 μM) and PMA (1 μM). After lysis, total lystaes were subjected to Western blot with anti-PKCα, anti-phospho-PKCα and anti-Actin antibodies.
RIN-m5F cells were incubated with ^3H-myristic acid ([…]) for 16 hours. After washing, the cells were treated with glucose, cytopiloyne, PMA and glimepiride. Total lipids were extracted as previously described. Radioactive DAG was separated on a silica thin layer plate with the first developer of ethylacetate: acetic acid: triethylpentane (9:2:5) and the second developer of hexane: diethylether: methanol: acetic acid (90:20:3:2). The spot of DAG was visualized with iodine vapor and identified by DAG standard.

In data set [4] the test system is PKCα. In words: PKCα translocation and phosphorylation (Western blot) in RIN-m5F cells. It is filed as cell-based, rat. To be noted: PMA 1 μM, glucose 16.7 mM. On the procedure:
as §1
(In western blotting, separated proteins are transferred to a membrane and probed.)

Data set [5] has as its system STZ-treated C57BL mice. In words: Insulin sensitizer test: oral dose before insulin injection in STZ-treated C57BL mice. It is filed as in vivo, mouse. To be noted: cytopiloyne 0.5 and 2.5, glimepiride 2.5, metformin 60 mgkg^−1 oral; insulin 2.5 IUkg^−1. The method, then:
(§2) FIGS. 3A-C show cytopiloyne-mediated insulin release depends on pancreatic islet cells. (A) Rat pancreatic islet cells were incubated with glucose-free KRB buffer containing vehicle or cytopiloyne at 1.5, 3, 7, 14, 28 and 42 μM (FIG. 3A-i). Similarly, rat pancreatic islet cells were incubated with KRB buffer containing vehicle, glimepiride (GLM, 10 μM) or cytopiloyne at 1.5, 3, 7, 14, 28 and 42 μM in the presence of 3.3 mM glucose (LG, FIG. 3A-ii) or 16.7 mM glucose (HG, FIG. 3A-iii). The insulin levels were determined using an insulin ELISA kit. The data presented as mean±SEM of 3 independent experiments. (B) Fed C57BL mice, which had already received an injection of STZ, were administered with an oral dose of vehicle, cytopiloyne (CP, 0.1, 0.5 and 2.5 mgkg^−1), and an intraperitoneal injection of insulin (Ins, 2.5 IUkg^−1). Blood sugar levels in the STZ-treated mice were determined using a glucometer. (C) C57BL mice, which had already received STZ, were orally administered with a single dose of vehicle, cytopiloyne (CP, 0.5 and 2.5 mgkg^−1), glimepiride (GLM, 2.5 mgkg^−1), or metformin (60 mgkg^−1), followed by an intraperitoneal injection with insulin (Ins). Blood sugar levels in the STZ-treated mice were determined using a glucometer. All the results from 3 independent experiments are expressed as mean±SEM, and P<0.05 was considered to be statistically significant (*). The number of mice (n) is indicated in parentheses.
To deplete pancreatic β-cells in mice, 6-week-old C57BL females (NLAC, Taipei, Taiwan) were intraperitoneally injected with STZ at 200 mgkg^−1. STZ-treated females with postprandial blood sugar over 500 mgdl^−1 were grouped. […] Blood glucose levels were monitored for 4 h. To distinguish sensitizer activity from releaser activity of cytopiloyne, STZ-treated C57BL mice were tube-fed with vehicle, glimepiride (2.5 mgkg^−1), metformin (60 mgkg^−1) or cytopiloyne (0.5 and 2.5 mgkg^−1) 1 h before insulin injection (2.5 IUkg^−1). Blood glucose levels in the mice were monitored from 0 to 4 h after insulin injection.

Data set [6] concerns adiponectin. The data set can be described thus: Real-time RT-PCR of adiponectin mRNA relative to GAPDH in 3T3-L1 cells. It is filed as cell-based, mouse. To be noted: mouse, 8 days, 1 μM.
Data set [7] has as its system adipocyte protein 2 (aP2). In words: Real-time RT-PCR of aP2 mRNA relative to GAPDH in 3T3-L1 cells. It is filed as cell-based, mouse. To be noted: mouse, 8 days, 1 μM. A general note: Real-time PCR tracks product formation cycle by cycle.
Data set [8] deals with β-cell line. In words: Insulin secretion in β-cell line (unpublished data). It is filed as cell-based.
Data set [9] has as its system STZ-treated C57BL mice. The data set can be described thus: Blood glucose in STZ-treated (β-cell-depleted) C57BL mice. Format: in vivo, mouse. To be noted: cytopiloyne oral 0.1, 0.5 and 2.5 mgkg^−1; insulin i.p. 2.5 IUkg^−1. On the procedure:
as §2, with “(C) C57BL mice, which had already received STZ, were orally administered with a single dose of vehicle, cytopiloyne (CP, 0.5 and 2.5 mgkg^−1), glimepiride (GLM, 2.5 mgkg^−1), or metformin (60 mgkg^−1), followed by an intraperitoneal injection with insulin (Ins).” left out, “The number of mice (n) is indicated in parentheses.” left out
To deplete pancreatic β-cells in mice, 6-week-old C57BL females (NLAC, Taipei, Taiwan) were intraperitoneally injected with STZ at 200 mgkg^−1. […] Blood glucose levels were monitored for 4 h. […] Blood glucose levels in the mice were monitored from 0 to 4 h after insulin injection.

For the compound `CN(C)CCCn1cc(C2=C(c3c[nH]c4ccccc34)C(=O)NC2=O)c2ccccc21` [GF109203X], the “effect of PKC inhibitor on induced insulin secretion” value in data set [1] (with cytopiloyne or PMA) was “inhibited cytopiloyne- and PMA-induced insulin secretion”. For the same compound, the “effect of PKC inhibitor on mediated insulin transcription” value in data set [2] (with cytopiloyne, glucose or PMA) was “completely abolished cytopiloyne-, glucose- and PMA-mediated insulin transcription”.
Consider `CCCCCCCCCCCCCC(=O)O[C@@H]1[C@@H](C)[C@@]2(O)[C@@H](C=C(CO)C[C@]3(O)C(=O)C(C)=C[C@@H]23)[C@@H]2C(C)(C)[C@]12OC(C)=O` [PMA, phorbol 12-myristate 13-acetate, reference compound], for which the “level of DAG” value in [3] was “significantly increased the level of DAG”. For the same compound, the “insulin secretion in β-cell line” value in [1] (glucose 16.7 mM) was “stimulated insulin secretion”. Also, the “insulin transcription in HIT-T15 cells” value in data set [2] (glucose 16.7 mM) is recorded as “stimulated insulin transcription”. The “phosphorylation of PKCα” value in data set [4] (cytopiloyne 7 μM) is recorded as “increased phosphorylation of PKCα”. Further, the “translocation of PKCα from cytoplasm to membrane” value in data set [4] (cytopiloyne 3, 7 and 14 μM) is reported as “increased the translocation of PKCα from cytoplasm to membrane”.
As for `CN(C)C(=N)N=C(N)N` [metformin], in data set [5], the “blood sugar lowering when dosed 60 min before insulin injection” value was “significantly reduced blood glucose levels”.
Turning to `CN(CCOc1ccc(CC2SC(=O)NC2=O)cc1)c1ccccn1` (stereo not shown) [rosiglitazone], in data set [6], the “adiponectin expression level, times control levels” value is given as 21 times. In addition, the “aP2 expression, times of the control” value in [7] was found to be 11 times.
Take cytopiloyne aglycone: in data set [8], the “induction of insulin secretion relative to cytopiloyne” value was “less effective than cytopiloyne in inducing insulin secretion” and the “insulin secretion in β-cell line” value was “did stimulate insulin secretion in β-cell line to some extent”.
In the case of “insulin: Insulin purchased from Novo Nordisk, injected intraperitoneally”, the “reduction of hyperglycemia / blood glucose in β-cell-depleted mice” value in data set [9] is given as “still diminished blood glucose levels”.
